From US11771083B2, “Flower thinning composition and flower thinning method using same” (priority 2018, dated 2023)
Like-named read-outs stand apart in the source and are kept apart here.

What was measured:
Fuji apple variety [1] = assay: Flower-thinning effect of one alcohol species formulations (Test Example 1); assay type: in vivo; details: for Number of lateral fruits set: 20 days post-spraying; for Lateral flower-thinning rate (%) / Total flower-thinning rate (%): relative to untreated group; for Flower-thinning contribution rate in IAP-108: spray concentration 0.2%, effect × content (0.4 or 0.6)
peach leaves = details: 3-4% decyl alcohol; cited from earlier work
Fuji apple variety [2] = details: in vivo; for Phytotoxicity: Fuji, apple
Method: Each of the chemical solutions was sprayed with a DIA (FURUPLA DIA SPRAY 570, Furupla Co., Ltd.) handy spray in both right and left directions in a sufficient amount to run along each flower cluster.
In this test, treatment (spraying) was performed when lateral flowers was in full bloom (Apr. 25, 2014), and phytotoxicity was assessed by visual scoring on day 4 after post-spraying (April 29) and day 11 after post-spraying (May 6). The flower-thinning effect was measured by recording the number of young fruits set without flower thinning on 20 days post-spraying (May 15). The flower thinning activity relative to that of the untreated group was presented as (1−number of young fruits in treated group/number of young fruits in untreated group)×100. This test was designed to have 8 replications with one flower cluster as one replication. Fertilization of the apple flowers was induced by natural fertilization.

honeybees [3] = assay: Acute contact toxicity to honeybees, active ingredients in acetone (Test Example 4); assay type: in vivo; details: for Lethality (%): 72 hours after treatment
honeybees [4] = details: active ingredient dissolved in acetone
Method: In the contact toxicity test for honeybees, healthy honeybees bred in an outdoor beekeeping system were acclimated in a breeding cage, and then anesthetized with CO2. […] This treatment was repeated 3 times for ten honeybees per test cage, and the honeybees were bred at 25° C. under dark conditions for 72 hours. The lethality of each aliphatic alcohol was measured.

[5] = treatment dose 200 μg per honeybee in acetone

For `CCCCCCCCCCO` [1-Decanol, 1-decanol], the “Number of central fruits set” value (Fuji apple variety [1]; concentration 0.01%) was 6, the “Total number of fruits set” value (Fuji apple variety [1]; concentration 0.01%) was 22 and the “Number of lateral fruits set” value (Fuji apple variety [1]; concentration 0.01%) was 16. The “Lateral flower-thinning rate (%)” value (Fuji apple variety [1]; concentration 0.01%) was 16%, the “Total flower-thinning rate (%)” value (Fuji apple variety [1]; concentration 0.01%) was 12% and the “Number of central fruits set” value (Fuji apple variety [1]; concentration 0.05%) was 5. For the same molecule, the “Total number of fruits set” value (Fuji apple variety [1]; concentration 0.05%) was 22, the “Number of lateral fruits set” value (Fuji apple variety [1]; concentration 0.05%) was 17 and the “Lateral flower-thinning rate (%)” value (Fuji apple variety [1]; concentration 0.05%) was 11%. The “Total flower-thinning rate (%)” value (Fuji apple variety [1]; concentration 0.05%) was 12%, the “Number of central fruits set” value (Fuji apple variety [1]; concentration 0.2%) was 5 and the “Total number of fruits set” value (Fuji apple variety [1]; concentration 0.2%) was 15. The “Number of lateral fruits set” value (Fuji apple variety [1]; concentration 0.2%) was 10, the “Lateral flower-thinning rate (%)” value (Fuji apple variety [1]; concentration 0.2%) was 47% and the “Total flower-thinning rate (%)” value (Fuji apple variety [1]; concentration 0.2%) was 40%. The “Flower-thinning contribution rate in IAP-108” value (Fuji apple variety [1]) was 28.2%, the “Phytotoxicity to peach leaves” value (peach leaves) was “significant phytotoxicity” and the Phytotoxicity (Fuji apple variety [2]) was 0. The “Phytotoxicity (in words)” value (Fuji apple variety [2]) was “no phytotoxicity”, the “Comparative contact toxicity to honeybees (in words)” value (honeybees [3]; among aliphatic alcohols and versus fatty acids of same carbon number) was “more toxic than 1-decanoic acid” and the “Comparative contact toxicity to honeybees (in words)” value (honeybees [3]; in vivo) was “highest lethality”. For the same molecule, the “Lethality (%)” value (honeybees [3]; treatment dose 50 μg per honeybee in acetone) was 70%, the “Lethality (%)” value (honeybees [3]; [5]) was 100% and the “Lethality (%)” value (honeybees [4]; treatment dose 50 μg) was 70%.

For `CCCCCCO` [1-Hexanol, 1-hexanol], the “Number of central fruits set” value (Fuji apple variety [1]; concentration 0.2%) was 6, the “Total number of fruits set” value (Fuji apple variety [1]; concentration 0.2%) was 15 and the “Number of lateral fruits set” value (Fuji apple variety [1]; concentration 0.2%) was 9. For the same molecule, the “Lateral flower-thinning rate (%)” value (Fuji apple variety [1]; concentration 0.2%) was 53%, the “Total flower-thinning rate (%)” value (Fuji apple variety [1]; concentration 0.2%) was 40% and the “Number of central fruits set” value (Fuji apple variety [1]; concentration 1%) was 5. The “Total number of fruits set” value (Fuji apple variety [1]; concentration 1%) was 10, the “Number of lateral fruits set” value (Fuji apple variety [1]; concentration 1%) was 5 and the “Lateral flower-thinning rate (%)” value (Fuji apple variety [1]; concentration 1%) was 74%. For the same molecule, the “Total flower-thinning rate (%)” value (Fuji apple variety [1]; concentration 1%) was 60%, the Phytotoxicity (Fuji apple variety [2]) was 0 and the “Lethality (%)” value (honeybees [3]; [5]) was 6.7%. The “Lethality (%)” value (honeybees [4]; treatment dose 100 μg) was 3.3%.

For `CCCCCCCCO` [1-Octanol, 1-octanol], the “Number of central fruits set” value (Fuji apple variety [1]; concentration 0.2%) was 7, the “Total number of fruits set” value (Fuji apple variety [1]; concentration 0.2%) was 13 and the “Number of lateral fruits set” value (Fuji apple variety [1]; concentration 0.2%) was 6. For the same molecule, the “Lateral flower-thinning rate (%)” value (Fuji apple variety [1]; concentration 0.2%) was 68%, the “Total flower-thinning rate (%)” value (Fuji apple variety [1]; concentration 0.2%) was 48% and the “Number of central fruits set” value (Fuji apple variety [1]; concentration 1%) was 3. For the same molecule, the “Total number of fruits set” value (Fuji apple variety [1]; concentration 1%) was 4, the “Number of lateral fruits set” value (Fuji apple variety [1]; concentration 1%) was 1 and the “Lateral flower-thinning rate (%)” value (Fuji apple variety [1]; concentration 1%) was 95%. The “Total flower-thinning rate (%)” value (Fuji apple variety [1]; concentration 1%) was 84%, the “Efficacy (in words)” value (Fuji apple variety [1]; concentration of 1% (V/V)) was “sufficient efficacy” and the “Flower-thinning contribution rate in IAP-108” value (Fuji apple variety [1]) was 27.2%. The “Lethality (%)” value (honeybees [3]; [5]) was 50% and the “Lethality (%)” value (honeybees [4]; treatment dose 100 μg) was 50%.

With `CCCCCCCCCC(=O)O` [1-decanoic acid, reference compound] the “Lethality (%)” value (honeybees [3]; [5]) was 90%.

With `CCCCCC(=O)O` [1-hexanoic acid, reference compound] the “Lethality (%)” value (honeybees [3]; [5]) was 30.0%.

With `CCCCCCCC(=O)O` [1-octanoic acid, reference compound] the “Lethality (%)” value (honeybees [3]; [5]) was 60%.

With `CCCCCCCC/C=C\CCCCCCCCO` [Oleyl alcohol, oleyl alcohol] the “Lateral flower-thinning rate (%)” value (Fuji apple variety [1]; concentration 0.1%) was 16% and the “Lethality (%)” value (honeybees [3]; [5]) was 20%.
